# From ChEMBL document CHEMBL3286289, “Synthesis and structure-activity relationship of non-phosphorus-based fructose-1,6-bisphosphatase inhibitors: 2,5-Diphenyl-1,3,4-oxadiazoles” (Eur J Med Chem, 2014)
# Calls of active or inactive are those of the source. No cut-off for these calls is given here.
# Assays:
# [1] = Inhibition of human recombinant FBPase-mediated fructose-6-phosphate formation by coupled spectrophotometric assay
# Hepatocyte [2] = assay: Inhibition of gluconeogenesis in Sprague-Dawley rat hepatocytes assessed as decrease in glucose output at 10 uM after 4 hrs by colorimetric assay relative to control; type: functional; details: values are per cent of control
# Hepatocyte [3] = assay: Inhibition of gluconeogenesis in Sprague-Dawley rat hepatocytes assessed as decrease in glucose output at 20 uM after 4 hrs by colorimetric assay relative to control; type: functional; details: values are per cent of control
# Hepatocyte [4] = assay: Inhibition of gluconeogenesis in Sprague-Dawley rat hepatocytes assessed as decrease in glucose output at 40 uM after 4 hrs by colorimetric assay relative to control; type: functional; details: values are per cent of control
# Hepatocyte [5] = assay: Inhibition of gluconeogenesis in Sprague-Dawley rat hepatocytes assessed as glucose output at 80 to 160 uM after 4 hrs by colorimetric assay; type: functional, cell-based
# Hepatocyte [6] = assay: Inhibition of gluconeogenesis in Sprague-Dawley rat hepatocytes assessed as decrease in glucose output at 2 mM after 4 hrs by colorimetric assay relative to control; type: functional; details: values are per cent of control
compound,measurement,setting,value
COc1ccc(CC(=O)Nc2cccc(-c3nnc(-c4ccc(C)cc4)o3)c2)cc1OC,IC50,[1],4.51 µM
same,"response, % of control at 10 µM",Hepatocyte [2],96.7%
same,"response, % of control at 20 µM",Hepatocyte [3],93.5%
same,"response, % of control at 40 µM",Hepatocyte [4],103%
Cc1ccc(-c2nnc(-c3cccc(NC(=O)CCCN4CCOCC4)c3)o2)cc1,IC50,[1],4.96 µM
Cc1ccc(-c2nnc(-c3cccc(NC(=O)CCCCCN4CCOCC4)c3)o2)cc1,IC50,[1],2.54 µM
same,"response, % of control at 10 µM",Hepatocyte [2],83.3%
same,"response, % of control at 20 µM",Hepatocyte [3],83.6%
same,"response, % of control at 40 µM",Hepatocyte [4],85.2%
same,inhibition,Hepatocyte [5],inactive
COc1ccc(CC(=O)Nc2cccc(-c3nnc(-c4cccc(Cl)c4)o3)c2)cc1OC,IC50,[1],15.5 µM
Nc1ncnc2c1ncn2[C@@H]1O[C@H](COP(=O)(O)O)[C@@H](O)[C@H]1O [ADENOSINE PHOSPHATE],IC50,[1],1.3 µM
CN(C)C(=N)NC(=N)N [METFORMIN],"response, % of control at 2000 µM",Hepatocyte [6],75%
Cc1ccc(-c2nnc(-c3cccc(NC(=O)CCCCN4CCOCC4)c3)o2)cc1,IC50,[1],5.01 µM
